Measurements taken from patent US6737383B1, “Herbicidal oxadiazolidines” (priority 1999, dated 2004).

Experiments:
[1] = tested on: bedstraw; assay: Test B pre/postemergence bedstraw; type: in vivo, Galium aparine
Method in brief: (§1)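 Response is a visual 0-to-10 score relative to untreated plants, where 0 means no effect and 10 means complete control, taken twelve to sixteen days after application. Treatments went onto soil at planting and onto foliage of 1- to 4-leaf plants, using a surfactant-containing non-phytotoxic solvent.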

[2] = tested on: blackgrass; assay: Test B pre/postemergence blackgrass; type: in vivo, Alopecurus myosuroides
Method in brief: as §1

[3] = tested on: surinam grass; assay: Test B pre/postemergence surinam grass; type: in vivo, Brachiaria decumbens
Method in brief: as §1

[4] = tested on: cocklebur; assay: Test B pre/postemergence cocklebur; type: in vivo, Xanthium strumarium
Method in brief: as §1

[5] = tested on: corn; assay: Test B pre/postemergence corn; type: in vivo, Zea mays
Method in brief: as §1

[6] = tested on: morningglory; assay: Test B pre/postemergence morningglory; type: in vivo, Ipomoea hederacea
Method in brief: as §1

[7] = tested on: pigweed; assay: Test B pre/postemergence pigweed; type: in vivo, Amaranthus retroflexus
Method in brief: as §1

[8] = tested on: rape; assay: Test B pre/postemergence rape; type: in vivo, Brassica napus
Method in brief: as §1

[9] = tested on: soybean; assay: Test B pre/postemergence soybean; type: in vivo, Glycine max
Method in brief: as §1

[10] = tested on: sugar beet; assay: Test B pre/postemergence sugar beet; type: in vivo, Beta vulgaris; conditions: for Plant response rating, Sugarbeets: Rate 250 g/ha
Method in brief: as §1

[11] = tested on: velvetleaf; assay: Test B pre/postemergence velvetleaf; type: in vivo, Abutilon theophrasti; conditions: for Plant response rating, Velvetleaf: Rate 250 g/ha
Method in brief: as §1

[12] = tested on: wild oat; assay: Test B pre/postemergence wild oat; type: in vivo, Avena fatua; conditions: for Plant response rating, Wild oats: Rate 250 g/ha
Method in brief: as §1

[13] = tested on: purple nutsedge; assay: Test B pre/postemergence purple nutsedge; type: in vivo, Cyperus rotundus
Method in brief: as §1

[14] = tested on: rice; assay: Test B flood test rice; type: in vivo, Oryza sativa
Method in brief: (§2)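 Read-out is a visual response score from 0 (no effect) to 10 (complete control), assigned by comparison with untreated controls. Treatment was applied at the 2-leaf stage, and plants stayed in the greenhouse for twelve to sixteen days before scoring.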

[15] = tested on: smallflower flatsedge; assay: Test B flood test smallflower flatsedge; type: in vivo, Cyperus difformis
Method in brief: as §2

[16] = tested on: bamyardgrass; assay: Test B flood test barnyardgrass; type: in vivo, Echinochloa crus-galli
Method in brief: as §2

[17] = Postemergence, Rate 62 g/ha, scale 0 to 10, 0 is no effect, 10 is complete control
[18] = Postemergence, Rate 250 g/ha, scale 0 to 10, 0 no effect, 10 complete control
[19] = Preemergence, Rate 62 g/ha, scale 0 to 10 (0 no effect, 10 complete control)
[20] = Preemergence, Rate 125 g/ha, scale 0 to 10 (0 no effect, 10 complete control)
[21] = Preemergence, Rate 250 g/ha, scale of 0 to 10 where 0 is no effect and 10 is complete control
[22] = Preemergence, Rate 500 g/ha, scale 0 to 10 (0 no effect, 10 complete control)
[23] = Rate 125 g/ha, Postemergence, scale 0 to 10, 0 no effect, 10 complete control
[24] = Postemergence, Rate 125 g/ha, scale of 0 to 10 where 0 is no effect and 10 is complete control
[25] = Rate 62 g/ha, Postemergence, scale of 0 to 10 where 0 is no effect and 10 is complete control
[26] = Rate 500 g/ha, Postemergence, scale 0 to 10, 0 no effect, 10 complete control
[27] = Rate 250 g/ha, Postemergence, scale 0 to 10, 0 is no effect, 10 is complete control
[28] = Preemergence, Rate 125 g/ha, 0 is no effect, 10 is complete control
[29] = Preemergence, scale of 0 to 10 where 0 is no effect and 10 is complete control
[30] = Postemergence, scale 0 to 10, 0 is no effect, 10 is complete control
[31] = Postemergence (flood test species), Rate 125 g/ha, scale of 0 to 10 where 0 is no effect and 10 is complete control
[32] = Rate 62 g/ha, Postemergence section, flood test species, scale of 0 to 10 where 0 is no effect and 10 is complete control
[33] = Rate 250 g/ha, Postemergence (flood test), scale 0 to 10, 0 is no effect, 10 is complete control
[34] = Rate 250 g/ha, headed Pre-emergence (flood test species), scale 0 to 10 (0 no effect, 10 complete control)
[35] = Rate 500 g/ha, headed Pre-emergence (flood test species), scale 0 to 10 (0 no effect, 10 complete control)
[36] = Rate 500 g/ha, listed under Postemergence (flood test species), scale 0 to 10, 0 no effect, 10 complete control
[37] = Rate 1000 g/ha, Pre-emergence (as headed), scale 0 to 10
[38] = Rate 2000 g/ha, Pre-emergence (as headed), scale 0 to 10

## CC(C)N(C(=O)n1oc(=O)n(C2CCCCC2)c1=O)c1ccc(Cl)cc1 [Compound 111]
[1]; [17]
  Bedstraw plant response rating: 5
[1]; [18]
  Bedstraw plant response rating: 7
[1]; [19]
  Bedstraw plant response rating: 0
[1]; [20]
  Plant response rating, Bedstraw: 0
[1]; [21]
  Plant response rating, Bedstraw: 0
[1]; [22]
  Bedstraw plant response rating: 3
[1]; [23]
  Bedstraw plant response rating: 5
[2]; [24]
  Blackgrass plant response rating: 3
[2]; [18]
  Blackgrass plant response rating: 5
[2]; [19]
  Blackgrass plant response rating: 0
[2]; [20]
  Plant response rating, Blackgrass: 0
[2]; [21]
  Plant response rating, Blackgrass: 2
[2]; [22]
  Blackgrass plant response rating: 5
[2]; [25]
  Blackgrass plant response rating: 0
[2]; [26]
  Blackgrass plant response rating: 7
[3]; [17]
  B. signalgrass plant response rating: 0
[3]; [18]
  B. signalgrass plant response rating: 0
[3]; [19]
  B. signalgrass plant response rating: 0
[3]; [20]
  Plant response rating, B. signalgrass: 1
[3]; [21]
  Plant response rating, B. signalgrass: 1
[3]; [22]
  B. signalgrass plant response rating: 4
[3]; [23]
  B. signalgrass plant response rating: 0
[3]; Rate 500 g/ha, Postemergence, scale of 0 to 10 where 0 is no effect and 10 is complete control
  B. signalgrass plant response rating: 0
[4]; [24]
  Cocklebur plant response rating: 0
[4]; [18]
  Cocklebur plant response rating: 2
[4]; [19]
  Cocklebur plant response rating: 0
[4]; [20]
  Plant response rating, Cocklebur: 0
[4]; [21]
  Plant response rating, Cocklebur: 0
[4]; [22]
  Cocklebur plant response rating: 0
[4]; [25]
  Cocklebur plant response rating: 0
[4]; [26]
  Cocklebur plant response rating: 3
[5]; [24]
  Corn plant response rating: 0
[5]; [18]
  Corn plant response rating: 0
[5]; [19]
  Corn plant response rating: 0
[5]; [20]
  Plant response rating, Corn: 1
[5]; [21]
  Plant response rating, Corn: 4
[5]; [22]
  Corn plant response rating: 4
[5]; [25]
  Corn plant response rating: 0
[5]; [26]
  Corn plant response rating: 0
[6]; [24]
  Morningglory plant response rating: 5
[6]; [18]
  Morningglory plant response rating: 5
[6]; [19]
  Morningglory plant response rating: 0
[6]; [20]
  Plant response rating, Morningglory: 0
[6]; [21]
  Plant response rating, Morningglory: 0
[6]; [22]
  Morningglory plant response rating: 0
[6]; [25]
  Morningglory plant response rating: 4
[6]; [26]
  Morningglory plant response rating: 8
[7]; [24]
  Redroot pigweed plant response rating: 3
[7]; [19]
  Redroot pigweed plant response rating: 3
[7]; [20]
  Plant response rating, Redroot pigweed: 6
[7]; [21]
  Plant response rating, Redroot pigweed: 8
[7]; [22]
  Redroot pigweed plant response rating: 8
[7]; [25]
  Redroot pigweed plant response rating: 3
[7]; [27]
  Plant response rating, Redroot pigweed: 4
[7]; [26]
  Redroot pigweed plant response rating: 6
[8]; [24]
  Rape plant response rating: 3
[8]; [18]
  Rape plant response rating: 3
[8]; [19]
  Rape plant response rating: 0
[8]; [20]
  Plant response rating, Rape: 0
[8]; [21]
  Plant response rating, Rape: 4
[8]; [22]
  Rape plant response rating: 4
[8]; [25]
  Rape plant response rating: 3
[8]; [26]
  Rape plant response rating: 4
[9]; [24]
  Soybean plant response rating: 3
[9]; [19]
  Soybean plant response rating: 0
[9]; [20]
  Plant response rating, Soybean: 4
[9]; [21]
  Plant response rating, Soybean: 4
[9]; [22]
  Soybean plant response rating: 5
[9]; [25]
  Soybean plant response rating: 3
[9]; [27]
  Plant response rating, Soybean: 4
[9]; [26]
  Soybean plant response rating: 5
[10]; [24]
  Sugarbeets plant response rating: 3
[10]; [19]
  Sugarbeets plant response rating: 0
[10]; [28]
  Sugarbeets plant response rating (0 to 10 scale): 0
[10]; [29]
  Plant response rating, Sugarbeets: 3
[10]; [22]
  Sugarbeets plant response rating: 4
[10]; [25]
  Sugarbeets plant response rating: 2
[10]; [30]
  Plant response rating, Sugarbeets: 3
[10]; [26]
  Sugarbeets plant response rating: 4
[11]; [24]
  Velvetleaf plant response rating: 0
[11]; [19]
  Velvetleaf plant response rating: 0
[11]; [28]
  Velvetleaf plant response rating (0 to 10 scale): 0
[11]; [29]
  Plant response rating, Velvetleaf: 3
[11]; [22]
  Velvetleaf plant response rating: 7
[11]; [25]
  Velvetleaf plant response rating: 0
[11]; [30]
  Plant response rating, Velvetleaf: 0
[11]; [26]
  Velvetleaf plant response rating: 2
[12]; [24]
  Wild oats plant response rating: 0
[12]; [19]
  Wild oats plant response rating: 0
[12]; [28]
  Wild oats plant response rating (0 to 10 scale): 0
[12]; [29]
  Plant response rating, Wild oats: 2
[12]; [22]
  Wild oats plant response rating: 4
[12]; [25]
  Wild oats plant response rating: 0
[12]; [30]
  Plant response rating, Wild oats: 1
[12]; [26]
  Wild oats plant response rating: 2
[13]; [24]
  Nutsedge plant response rating: 0
[13]; [18]
  Nutsedge plant response rating: 0
[13]; [19]
  Nutsedge plant response rating: 0
[13]; [20]
  Plant response rating, Nutsedge: 0
[13]; [21]
  Plant response rating, Nutsedge: 0
[13]; [22]
  Nutsedge plant response rating: 0
[13]; [25]
  Nutsedge plant response rating: 0
[13]; [26]
  Nutsedge plant response rating: 0
[14]; [31]
  Rice plant response rating: 0
[14]; [32]
  Rice plant response rating: 0
[14]; [33]
  Plant response rating, Rice: 0
[14]; [34]
  Rice plant response rating: 0
[14]; [35]
  Plant response rating, Rice: 0
[14]; [36]
  Rice plant response rating: 0
[14]; [37]
  Rice plant response rating: 0
[14]; [38]
  Rice plant response rating: 0
[15]; [31]
  S. Flatsedge plant response rating: 0
[15]; Pre-emergence, Rate 1000 g/ha, scale 0 to 10 (0 no effect, 10 complete control)
  S. Flatsedge plant response rating: 0
[15]; [32]
  S. Flatsedge plant response rating: 0
[15]; [33]
  Plant response rating, S. Flatsedge: 0
[15]; [34]
  S. Flatsedge plant response rating: 0
[15]; [35]
  Plant response rating, S. Flatsedge: 0
[15]; [36]
  S. Flatsedge plant response rating: 0
[15]; [38]
  S. Flatsedge plant response rating: 0
[16]; [17]
  Barnyardgrass plant response rating: 0
[16]; Rate 125 g/ha, Postemergence section (flood test species), scale 0 to 10, 0 no effect, 10 complete control
  Barnyardgrass plant response rating: 0
[16]; [34]
  Barnyardgrass plant response rating: 0
[16]; [35]
  Plant response rating, Barnyardgrass: 0
[16]; [36]
  Barnyardgrass plant response rating: 0
[16]; [37]
  Barnyardgrass plant response rating: 0
[16]; Rate 2000 g/ha, Pre-emergence (as headed), scale 0 to 10, 0 no effect, 10 complete control
  Barnyardgrass plant response rating: 9
[16]; flood test, listed under Postemergence, Rate 250 g/ha, scale 0 to 10, 0 no effect, 10 complete control
  Barnyardgrass plant response rating: 0
